Reference: patent publication US6420341B1, “Sulphur derivatives with a retroamide bond as endothelin-converting enzyme inhibitors” (Aventis Pharma S.A., priority 1996, dated 2002)

Target: T1, endothelin-converting enzyme (ECE) (Homo sapiens, UniProt P42892)
T1 sequence (P42892 1-770): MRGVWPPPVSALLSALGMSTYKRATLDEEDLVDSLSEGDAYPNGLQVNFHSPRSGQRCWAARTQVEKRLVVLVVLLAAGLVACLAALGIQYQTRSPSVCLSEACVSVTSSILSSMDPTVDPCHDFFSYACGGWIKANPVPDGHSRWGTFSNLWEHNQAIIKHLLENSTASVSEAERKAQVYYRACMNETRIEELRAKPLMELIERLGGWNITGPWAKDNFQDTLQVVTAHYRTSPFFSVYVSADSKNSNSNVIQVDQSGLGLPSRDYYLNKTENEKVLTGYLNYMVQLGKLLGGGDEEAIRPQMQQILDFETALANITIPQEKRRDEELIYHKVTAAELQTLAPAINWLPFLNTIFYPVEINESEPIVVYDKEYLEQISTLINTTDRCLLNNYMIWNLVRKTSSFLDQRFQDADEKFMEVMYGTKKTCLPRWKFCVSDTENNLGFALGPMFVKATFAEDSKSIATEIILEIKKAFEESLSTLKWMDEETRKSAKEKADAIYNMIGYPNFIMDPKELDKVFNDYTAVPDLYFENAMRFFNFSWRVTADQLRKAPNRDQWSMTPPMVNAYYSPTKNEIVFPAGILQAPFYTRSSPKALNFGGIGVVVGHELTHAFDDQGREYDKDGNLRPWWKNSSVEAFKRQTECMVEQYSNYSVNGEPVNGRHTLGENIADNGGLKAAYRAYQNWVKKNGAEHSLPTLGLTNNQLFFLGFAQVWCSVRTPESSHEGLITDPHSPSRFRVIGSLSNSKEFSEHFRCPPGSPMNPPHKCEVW
Experiment: Determination of the inhibitory activity of the endothelin-converting enzyme (ECE), cleavage of (2,3-3H)propionyl-b-ET-1(19-35)
Type: biochemical
Conditions: purified ECE, pre-incubation 30 minutes at 37° C., Tris maleate buffer pH=6.5, incubation one hour at 37° C.; read-out: IC50 (concentration which causes a 50% inhibition of ECE)
Description: A test is used, in which the product (2,3-^3H)propionyl-b-ET-1(19-35) prepared as indicated below in a) is cleaved by ECE into the product (2,3-^3H)propionyl-b-ET-1(19-21) in the presence of product P of which the inhibitory activity of ECE one wishes to determine as indicated below in b): the inhibitory activity of ECE of the product P will therefore be accordingly as high as the quantity of product of formula (II) formed, determined by counting the radioactivity, will be low. The operation is carried out as follows:
10 μl of ECE i.e. 1 to 2 μg of purified ECE are pre-incubated for 30 minutes at 37° C., in 400 μl of a 50 mM Tris maleate buffer pH=6.5, 20 μl of 5M sodium chloride and 5 μl of product P the inhibitory activity of which one wishes to test, in solution at different concentrations (comprised between […]) (i.e. final concentrations in product P of 10 nM to 1 mM).
The reaction is initiated by the addition of 10 μl of (2,3-^3H)propionyl-b-ET-1(19-35) prepared as indicated above in a), at a final concentration of 1.8.10^−12M.
After incubation for one hour at 37° C., the reaction is stopped by the addition of 600 μl of ethyl acetate and the (2,3-^3H)propionyl-b-ET-1(19-21) is extracted by mechanical agitation for 2 minutes.
300 μl of the organic phase is removed, 5 ml of liquid scintillator is added and the radioactivity is counted for 1 minute with a liquid scintillation counter.
Each measurement is carried out in triplicate except for the ECE control (control enzyme, without the product the ECE inhibitory activity of which one wishes to test), for which the measurement is carried out six times.
The percentage inhibition is calculated by establishing the relationship: [formula]
The blank is carried out starting with the solution obtained without enzyme.
From the cpm's obtained and by plotting the graph of the percentage of inhibition relative to the concentration of inhibitor (nM), the IC50 is calculated which therefore corresponds to the concentration which causes a 50% inhibition of ECE.

Structure (SMILES)	IC50 [nM]
N#Cc1ccccc1-c1ccc(CC(C(=O)O)C(=O)NC(CS)Cc2ccc(OS(=O)(=O)C(F)(F)F)cc2)cc1 (stereo not drawn) [Example 10, 2′-Cyano-alpha-[[[1-(mercaptomethyl) 2-(paratrifluoromethylsulphonyloxy)phenylethyl]amino]carbonyl](1,1′-biphenyl) 4-propanoic acid]	150
O=C(CCCCCCCCCCOc1ccccc1)N[C@@H](CS)Cc1ccccc1 [Example 6]	220
N#Cc1ccccc1-c1ccc(CC(C(=O)O)C(=O)N[C@@H](CS)Cc2ccccc2)cc1 (mixture of isomers) [Example 4, 2′-cyano-alpha-[[[1-(mercaptomethyl)-2-phenylethyl]amino]carbonyl]-(1,1′-biphenyl)-4-propanoic acid]	30
